Reference: patent US4997771A, “Method for measuring the BZ-1 receptor binding activity in a test sample or test compound” (Schering Corporation, priority 1987, dated 1991)

Key:
[1] = tested on: ^3 H-flunitrazepam binding sites (benzodiazepine receptors BZ-1 and BZ-2) in rat cortex; assay: ^3 H-flunitrazepam competition binding, rat cortex; settings: for difference in binding affinity for two BZ receptors (BZ-1 and BZ-2): vs ^3 H-flunitrazepam, average; for populations of binding sites distinguished: unlabeled drug vs ^3 H-flunitrazepam
Description: (§1) Male Spraque-Sawley rats (200 to 250 gms) from Charles River Breeding Laboratories, Mass., were used to obtain brain tissue. Animals were decapitated and their brains removed. Synaptic membranes were obtained following the procedure disclosed in Life Sc., 35, 105 (1984). Cerebral cortex and cerebellum were dissected on ice and homogenized in 20 volumes of ice cold 0.32 M sucrose using a glass homogenizer fitted with a teflon pestle. The homogenates were then centrifuged at 48,000 X g for 10 min, and the resultant P2 pellets were washed twice by re-centrifugation in 50 mM Na/K phosphate buffered saline (pH 7.4). The washed pellets were pooled and then resuspended in the same buffer to a final concentration of 50 mg of original tissue weight/ml.
(§2) Total reaction mixture volume was 1 ml which included: (a) 100 μl of either ^3 H-flunitrazepam or ^3 H-2-oxo-quazepam (tritiated at the α-carbon of the trifluoroethyl substituent located at the #1 position), yielding a final concentration of 0.5 nM (b) 100 μl of various concentrations of competing drugs dissolved or suspended in 50 mM phosphate buffered saline (pH 7.4) containing 4 mg/ml methylcellulose (c) 800 μl of tissue homogenate diluted such that a total of 5 mg of tissue was present in the final reaction mixture. In each competition experiment 25 to 30 concentrations of drug were used to obtain a complete dose response curve.
(§3) Incubations were carried out at 0° C. for 90 minutes. Samples were then filtered under vacuum through 25 mm diameter Whatman GF/B filters on a Millipore 1225 Sampling Manifold and quickly washed with 3×5 ml of ice-cold PBS buffer. Filter-bound radioactivity was quantified through liquid scintillation counting following overnight solubilization of the receptor-radioligand complex in "Scintosol" scintillation cocktail (Isolab, Inc.).
(§4) Compound assisted curve fitting was conducted on an Apple IIe computer using a program described in Br. J. Pharmacol., 80, 582P (1983) and Trends in Pharmaceutical Sci., 5, 47, (1984). Enhancements were made to the program to allow disk storage of data and printing of the program to allow disk storage of data and printing of the graphics display. The program determines whether the results from individual competition experiments are best interpreted on the basis of a 1 or 2 site model and also provides the most probable proportions of radioligand bound to each of the sites.
(§5) Selection among models was made by comparing the sum of squares residual values for the best single and 2-site models and determining through a partial F-test evaluation whether 2-site modelling produced a statistically meaningful (P<0.05) improvement in fit as described in Anal. Biochem., 107, 220 (1980). If not, the best single site model was considered the model of choice.

[2] = molecular target: T1, ^3 H-flunitrazepam binding sites in rat cerebellum (BZ-1) (Rattus norvegicus, UniProt P18508+P62813); assay: ^3 H-flunitrazepam competition binding, rat cerebellum
T1 construct: Cerebral cortex and cerebellum were dissected on ice and homogenized; tissue Charles River Breeding Laboratories (rats); host or cells: rat cerebellum synaptic membranes (washed P2 pellet)
Description: as §1, with “weight/ml. […]” for “weight/ml.”
Incubations were carried out at 0° C. for 90 minutes. […] Filter-bound radioactivity was quantified through liquid scintillation counting following overnight solubilization of the receptor-radioligand complex in "Scintosol" scintillation cocktail (Isolab, Inc.). […]

[3] = molecular target: T2, ^3 H-2-oxo-quazepam binding sites (BZ-1 receptors) in rat cortex (Rattus norvegicus, UniProt P18508+P62813); assay: ^3 H-2-oxo-quazepam competition binding, rat cortex; settings: for best-fit curve model: vs ^3 H-2-oxo-quazepam 0.5 nM
T2 construct: Cerebral cortex and cerebellum were dissected on ice and homogenized; tissue Charles River Breeding Laboratories (rats); host or cells: rat cerebral cortex synaptic membranes (washed P2 pellet)
Description: as §1, §2, §3, §4, §5

[4] = molecular target: T3, ^3 H-2-oxo-quazepam binding sites (BZ-1 receptors) in cerebellum (Rattus norvegicus, UniProt P18508+P62813); assay: ^3 H-2-oxo-quazepam competition binding, cerebellum
T3 construct: Cerebral cortex and cerebellum were dissected on ice and homogenized; tissue Charles River Breeding Laboratories (rats); host or cells: rat cerebellum synaptic membranes (washed P2 pellet)
Description: as §1, §2, §3
Compound assisted curve fitting was conducted on an Apple IIe computer using a program described in Br. J. Pharmacol., 80, 582P (1983) and Trends in Pharmaceutical Sci., 5, 47, (1984). […]

[5] = molecular target: benzodiazepine sites (BZ-1 receptors) in rat cortex (Rattus norvegicus, UniProt P18508+P62813); assay: Saturation binding of ^3 H-2-oxo-quazepam in rat cortex; settings: for non-specific binding: 0.5 nM
Description: as §1
Saturation binding studies were conducted utilizing ^3 H-2-oxo-quazepamin rat cortex over a range of concentrations from 0.1 to 30 nM. The separation between specific and non-specific binding indicated the suitability of ^3 H-2-oxo-quazepam as a radioligand for benzodiazepine sites. Specific binding was defined as the difference between total binding and binding in the presence of 100 nM unlabeled clonazepam. At a concentration of 0.5 nM, non-specific binding for the radioligand constituted only 5 to 10 percent of total binding.

[6] = tested on: benzodiazepine (BZ) receptors in brain; settings: literature; cited from earlier work
[7] = doses far above tranquilizing doses; cited from earlier work
[8] = cats; doses below those that caused ataxia; cited from earlier work

## O=C1CN=C(c2ccccc2F)c2cc(Cl)ccc2N1CC(F)(F)F [2-oxo-quazepam, 7-chloro-1-(2,2,2-trifluoroethyl)-5-(2-fluorophenyl)-1,3-dihydro-2H-1,4 benzodiazepine-2-one]
[1]; rat cortex
  relative proportion of ^3 H-flunitrazepam binding sites, first-named subpopulation: 55%
  relative proportion of ^3 H-flunitrazepam binding sites, second-named subpopulation: 45%
  difference in binding affinity for two BZ receptors (BZ-1 and BZ-2): 22 fold
  populations of binding sites distinguished: distinguished two subpopulations
[1]; vs ^3 H-flunitrazepam 0.5 nM, cortex, 0° C., 90 minutes, read-out: IC50, high affinity component
  IC50: 9.3 nM
[2]
  IC50: 8.8 nM
[2]; vs ^3 H-flunitrazepam, cerebellum
  populations of binding sites distinguished: did not distinguish subpopulations of binding sites
[3]
  IC50: 16.8 nM
  best-fit curve model: single site curve fitting model
[3]; cortex, vs ^3 H-2-oxo-quazepam
  relative potency vs quazepam: 6 times
[3]; low concentrations (0.5 nM)
  BZ-1 selectivity of binding: binds BZ-1 receptors almost exclusively
[3]; vs ^3 H-2-oxo-quazepam, cortex and cerebellum
  potency in cortex compared with cerebellum: roughly equipotent
[4]
  IC50: 13.6 nM
[4]; cerebellum, vs ^3 H-2-oxo-quazepam
  relative potency vs quazepam: 19 times
[5]
  non-specific binding: < 5%
[6]
  subpopulations of BZ receptors distinguished: distinguish two subpopulations of benzodiazepine (BZ) receptors

## [3H]C([3H])(N1C(=O)CN=C(c2ccccc2F)c2cc(Cl)ccc21)C(F)(F)F [^3 H-2-oxo-quazepam, 7-Chloro-1-^3 H-(2,2,2-Trifluoroethyl)-5-(2-Fluorophenyl)-1,3-Dihydro-2H-1,4 Benzodiazepine-2-One]
[5]
  non-specific binding: 5 to 10%
[5]; 0.1 to 30 nM, even after saturation of BZ-1 receptors
  non-specific binding vs concentration: linear relationship with increasing concentration

## CN1C(=O)CN=C(c2ccccc2F)c2cc([N+](=O)[O-])ccc21 [flunitrazepam, reference compound]
[1]; benzodiazepine receptors
  receptor subtype specificity of binding: binds non-specifically to benzodiazepine receptors
[1]; rat cortex
  populations of binding sites distinguished: only a single uniform population of sites

## O=C1CN=C(c2ccccc2)c2cc(Cl)ccc2N1CC(F)(F)F [halazepam]
[7]
  ataxic effects: only weak ataxic effects

## Fc1ccccc1C1=NCC(=S)N(CC(F)(F)F)c2ccc(Cl)cc21 [quazepam, 7-chloro-1-(2,2,2-trifluorethyl)-5-(2-fluorophenyl)-1,3-dihydro-2H-1,4 benzodiazpeine-2-thione, reference compound]
[1]; rat cortex
  difference in binding affinity for two BZ receptors (BZ-1 and BZ-2): 54 fold
  populations of binding sites distinguished: distinguished two subpopulations
[3]
  IC50: 101 nM
  best-fit curve model: single site curve fitting model
[4]
  IC50: 258 nM
[8]
  behavioural effect: only drowsiness and sleep
